Measured values as given in patent US20230265151A1, “GIP/GLP1 CO-AGONIST COMPOUNDS” (priority 2020, published 2023).
Like-named read-outs stand apart in the source and are kept apart here. One block for each compound: values may come before it.

Legend:
Assay type in all cases: cell-based
hGCGR = biological target: T1, hGCGR (Homo sapiens, UniProt P47871); test: Functional cAMP formation (HTRF) in HEK-293 clonal cells expressing hGCGR, 0.1% bovine casein, without or with 1.0% human serum albumin
T1 construct: expressed in transfected cells
Outline: (§1)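 Readings of the HTRF 665/620 nm ratio, which falls as cAMP rises, were converted to nM cAMP using a standard curve after 30 min peptide exposure at 37° C.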

hGIPR = biological target: T2, hGIPR (Homo sapiens, UniProt P48546); test: Functional cAMP formation (HTRF) in HEK-293 clonal cells expressing hGIPR, 0.1% bovine casein, without or with 1.0% human serum albumin; conditions: for EC50: cAMP, 0.1% bovine casein (no human serum albumin), geometric mean
T2 construct: expressed in transfected cells
T2 sequence (P48546 22-466): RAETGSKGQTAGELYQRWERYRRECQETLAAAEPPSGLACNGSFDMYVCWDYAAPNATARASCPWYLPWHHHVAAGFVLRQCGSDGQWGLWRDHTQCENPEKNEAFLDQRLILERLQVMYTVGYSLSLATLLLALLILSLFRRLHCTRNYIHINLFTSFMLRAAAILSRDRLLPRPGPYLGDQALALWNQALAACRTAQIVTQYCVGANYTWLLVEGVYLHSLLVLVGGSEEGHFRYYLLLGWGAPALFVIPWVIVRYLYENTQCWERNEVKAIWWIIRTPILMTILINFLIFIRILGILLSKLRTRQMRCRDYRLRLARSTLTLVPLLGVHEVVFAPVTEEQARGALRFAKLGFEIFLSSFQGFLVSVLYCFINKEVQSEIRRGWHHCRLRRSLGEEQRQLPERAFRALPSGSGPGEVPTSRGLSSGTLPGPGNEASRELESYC
Outline: as §1

hGLP-1R = hGLP-1R (Homo sapiens, UniProt P43220); test: Functional cAMP formation (HTRF) in HEK-293 clonal cells expressing hGLP-1R, 0.1% bovine casein, without or with 1.0% human serum albumin; design: expressed in transfected cells; conditions: for Emax: percent of maximal response to GLP-1(7-36)NH2, arithmetic mean
Outline: as §1

[1] = cAMP, 37° C., 0.1% bovine casein (no human serum albumin), geometric mean, read-out: hGCGR EC50, nM (SEM, n)
[2] = cAMP, 37° C., 0.1% bovine casein and 1.0% human serum albumin, geometric mean (SEM, n), read-out: hGCGR EC50, nM (SEM, n)
[3] = HEK293, cAMP, 37° C., 0.1% bovine casein and 1.0% human serum albumin, percent of maximal response to GIP(1-42)NH2, read-out: hGIPR Emax, % ± SEM
[4] = 37° C., read-out: hGIPR EC50, nM (SEM, n)
[5] = cAMP, 37° C., 0.1% bovine casein (no human serum albumin), geometric mean, read-out: hGLP-1R EC50, nM (SEM, n)

hGLP-1R, sequence (P43220 24-463): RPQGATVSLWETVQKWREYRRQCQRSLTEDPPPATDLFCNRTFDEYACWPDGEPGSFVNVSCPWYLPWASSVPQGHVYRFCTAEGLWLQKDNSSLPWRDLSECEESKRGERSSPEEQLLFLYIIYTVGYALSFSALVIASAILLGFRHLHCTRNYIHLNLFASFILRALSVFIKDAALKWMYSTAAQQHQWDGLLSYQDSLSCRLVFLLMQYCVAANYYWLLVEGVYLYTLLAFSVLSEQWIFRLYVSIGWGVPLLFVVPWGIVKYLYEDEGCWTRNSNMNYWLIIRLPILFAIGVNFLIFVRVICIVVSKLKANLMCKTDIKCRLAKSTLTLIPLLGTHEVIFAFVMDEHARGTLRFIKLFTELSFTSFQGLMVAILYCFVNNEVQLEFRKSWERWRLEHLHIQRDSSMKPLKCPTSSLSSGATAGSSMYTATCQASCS
T1 sequence (P47871 26-477): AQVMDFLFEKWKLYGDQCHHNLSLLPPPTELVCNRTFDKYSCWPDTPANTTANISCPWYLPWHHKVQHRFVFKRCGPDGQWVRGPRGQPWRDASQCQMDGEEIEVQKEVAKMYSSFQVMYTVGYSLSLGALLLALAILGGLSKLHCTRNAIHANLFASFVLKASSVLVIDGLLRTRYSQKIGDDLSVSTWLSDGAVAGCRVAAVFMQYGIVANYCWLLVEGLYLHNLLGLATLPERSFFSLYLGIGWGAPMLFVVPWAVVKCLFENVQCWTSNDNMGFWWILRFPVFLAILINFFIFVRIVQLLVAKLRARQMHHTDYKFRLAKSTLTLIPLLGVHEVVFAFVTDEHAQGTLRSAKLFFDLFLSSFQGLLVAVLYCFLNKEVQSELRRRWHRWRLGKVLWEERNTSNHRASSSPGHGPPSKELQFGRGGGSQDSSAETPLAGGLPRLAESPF

SMILES: CC[C@H](C)[C@H](NC(=O)[C@H](CC(C)C)NC(=O)[C@](C)(Cc1ccc(O)cc1)NC(=O)[C@@H](CCC(=O)O)NC(=O)[C@@H](NC(=O)[C@H](Cc1ccccc1)NC(=O)[C@H](CCCCNC(=O)CCOCCOCCOCCNC(=O)CC[C@H](NC(=O)CCCCCCCCCCCCC(=O)O)C(=O)O)NC(=O)C(C)(C)NC(=O)[C@H](CCC(N)=O)NC(=O)[C@H](C)NC(=O)[C@H](CCCCNC(=O)CCOCCOCCOCCNC(=O)CC[C@H](NC(=O)CCCCCCCCCCCCC(=O)O)C(=O)O)NC(=O)[C@H](CCCN)NC(=O)[C@H](CC(=O)O)NC(=O)[C@H](CC(C)C)NC(=O)[C@](C)(CC(C)C)NC(=O)[C@@H](NC(=O)C(C)(C)NC(=O)[C@H](Cc1ccncc1)NC(=O)[C@H](CC(=O)O)NC(=O)[C@H](CO)NC(=O)[C@@H](NC(=O)[C@](C)(Cc1ccccc1F)NC(=O)[C@@H](NC(=O)CNC(=O)[C@H](CCC(=O)O)NC(=O)C(C)(C)NC(=O)[C@@H](N)Cc1ccc(O)cc1)[C@@H](C)O)[C@@H](C)O)[C@@H](C)CC)[C@@H](C)CC)C(=O)N[C@@H](CCC(=O)O)C(=O)NCC(=O)NCC(=O)N1CCC[C@H]1C(=O)N[C@@H](CO)C(=O)N[C@@H](CO)C(=O)NCC(=O)N[C@@H](C)C(=O)N1CCC[C@H]1C(=O)N1CCC[C@H]1C(=O)N1CCC[C@H]1C(=O)N[C@@H](CO)C(N)=O [Example 404]
EC50 (hGCGR; [1]): > 9950 nM
EC50 (hGCGR; [2]): > 9950 nM
Emax (hGIPR; [3]): 77.3%
EC50 (hGIPR; [4]): 0.014 nM
Emax (hGLP-1R; HEK293, cAMP, 37° C., 0.1% bovine casein, read-out: hGLP-1R Emax, % ± SEM): 94.3%
EC50 (hGLP-1R; [5]): 0.632 nM

SMILES: CC[C@H](C)[C@H](NC(=O)[C@H](CCCN)NC(=O)[C@H](CC(=O)O)NC(=O)[C@H](CC(C)C)NC(=O)[C@](C)(CC(C)C)NC(=O)[C@@H](NC(=O)[C@H](CO)NC(=O)[C@H](CCc1ccc(O)cc1)NC(=O)[C@H](CC(=O)O)NC(=O)[C@H](CO)NC(=O)[C@@H](NC(=O)[C@](C)(Cc1ccccc1F)NC(=O)[C@@H](NC(=O)CNC(=O)[C@H](CCC(=O)O)NC(=O)C(C)(C)NC(=O)[C@@H](N)Cc1ccc(O)cc1)[C@@H](C)O)[C@@H](C)O)[C@@H](C)CC)C(=O)N[C@@H](C)C(=O)N[C@@H](CCC(N)=O)C(=O)NC(C)(C)C(=O)N[C@@H](CCC(=O)O)C(=O)N[C@@H](Cc1ccccc1)C(=O)N[C@H](C(=O)N[C@@H](CCCCNC(=O)COCCOCCNC(=O)COCCOCCNC(=O)CC[C@H](NC(=O)CCCCCCCCCOc1ccc(C(=O)O)cc1)C(=O)O)C(=O)N[C@@](C)(Cc1ccc(O)cc1)C(=O)N[C@@H](CC(C)C)C(=O)N[C@H](C(=O)N[C@@H](CCCCNC(=O)COCCOCCNC(=O)COCCOCCNC(=O)CC[C@H](NC(=O)CCCCCCCCCOc1ccc(C(=O)O)cc1)C(=O)O)C(=O)NCC(=O)NCC(=O)N1CCC[C@H]1C(=O)N[C@@H](CO)C(=O)N[C@@H](CO)C(=O)NCC(=O)N[C@@H](C)C(=O)N1CCC[C@H]1C(=O)N1CCC[C@H]1C(=O)N1CCC[C@H]1C(=O)N[C@@H](CO)C(N)=O)[C@@H](C)CC)[C@@H](C)CC [Example 310]
EC50 (hGCGR; hGCGR EC50, nM (SEM, n), 0.1% bovine casein and 1.0% human serum albumin, 37° C., geometric mean): > 9950 nM
EC50 (hGCGR; hGCGR EC50, nM (SEM, n), cAMP, 37° C., 0.1% bovine casein (no human serum albumin), geometric mean): > 9950 nM
Emax (hGIPR; HEK293, read-out: hGIPR Emax, % ± SEM, 0.1% bovine casein and 1.0% human serum albumin, 37° C., percent of maximal response to GIP(1-42)NH2): 83.9%
EC50 (hGIPR; hGIPR EC50, nM (SEM, n), 37° C.): 0.025 nM
Emax (hGLP-1R; HEK293, read-out: hGLP-1R Emax, % ± SEM, cAMP, 37° C., 0.1% bovine casein): 105%
EC50 (hGLP-1R; hGLP-1R EC50, nM (SEM, n), cAMP, 37° C., 0.1% bovine casein (no human serum albumin), geometric mean): 0.347 nM

SMILES: CC[C@H](C)[C@H](NC(=O)[C@H](CC(C)C)NC(=O)[C@](C)(Cc1ccc(O)cc1)NC(=O)[C@H](CCCCNC(=O)COCCOCCNC(=O)COCCOCCNC(=O)CC[C@H](NC(=O)CCCCCCCCCCCCC(=O)O)C(=O)O)NC(=O)[C@@H](NC(=O)[C@H](Cc1ccccc1)NC(=O)[C@H](CCC(=O)O)NC(=O)C(C)(C)NC(=O)[C@H](CCC(N)=O)NC(=O)[C@H](C)NC(=O)[C@H](CCC(N)=O)NC(=O)[C@H](CCCN)NC(=O)[C@H](CC(=O)O)NC(=O)[C@H](CC(C)C)NC(=O)[C@](C)(CC(C)C)NC(=O)[C@@H](NC(=O)C(C)(C)NC(=O)[C@H](Cc1ccc(O)cc1)NC(=O)[C@H](CC(=O)O)NC(=O)[C@H](CO)NC(=O)[C@@H](NC(=O)[C@](C)(Cc1ccccc1F)NC(=O)[C@@H](NC(=O)CNC(=O)[C@H](CCC(=O)O)NC(=O)C(C)(C)NC(=O)[C@@H](N)Cc1ccc(O)cc1)[C@@H](C)O)[C@@H](C)O)[C@@H](C)CC)[C@@H](C)CC)C(=O)N[C@@H](CCCCNC(=O)COCCOCCNC(=O)COCCOCCNC(=O)CC[C@H](NC(=O)CCCCCCCCCCCCC(=O)O)C(=O)O)C(=O)NCC(=O)NCC(=O)N1CCC[C@H]1C(=O)N[C@@H](CO)C(=O)N[C@@H](CO)C(=O)NCC(=O)N[C@@H](C)C(=O)N1CCC[C@H]1C(=O)N1CCC[C@H]1C(=O)N1CCC[C@H]1C(=O)N[C@@H](CO)C(N)=O [Example 412]
EC50 (hGCGR; [1]): > 9950 nM
EC50 (hGCGR; [2]): > 9950 nM
Emax (hGIPR; [3]): 87.5%
Emax (hGIPR; HEK293, cAMP, 37° C., 0.1% bovine casein, percent of maximal response to GIP(1-42)NH2, arithmetic mean, read-out: hGIPR Emax, % ± SEM): 95.4%
EC50 (hGIPR; [4]): 0.0108 nM
EC50 (hGLP-1R; [5]): 0.16 nM
EC50 (hGLP-1R; cAMP, 37° C., 0.1% bovine casein and 1.0% human serum albumin, geometric mean (SEM, n), read-out: hGLP-1R EC50, nM (SEM, n)): 18.3 nM

EC50 (hGCGR; 0.1% bovine casein and 1.0% human serum albumin, 37° C., geometric mean, read-out: hGCGR EC50, nM (SEM, n)): > 9950 nM
EC50 (hGCGR; cAMP, incubated at 37° C., 0.1% bovine casein (no human serum albumin), geometric mean, read-out: hGCGR EC50, nM (SEM, n)): > 9950 nM
Emax (hGIPR; HEK293, 0.1% bovine casein and 1.0% human serum albumin, 37° C., percent of maximal response to GIP(1-42)NH2, read-out: hGIPR Emax, % ± SEM): 93 ± 4.96%
Emax (hGIPR; HEK293, percent of maximal response to GIP(1-42)NH2, 37° C., 0.1% bovine casein, arithmetic mean, read-out: hGIPR Emax, % ± SEM): 96.6 ± 3.26%
EC50 (hGLP-1R; 0.1% bovine casein and 1.0% human serum albumin, 37° C., geometric mean, read-out: hGLP-1R EC50, nM (SEM, n)): 70.5 nM
EC50 (hGLP-1R; cAMP, incubated at 37° C., 0.1% bovine casein (no human serum albumin), geometric mean, read-out: hGLP-1R EC50, nM (SEM, n)): 1.69 nM
SMILES: CC[C@H](C)[C@H](NC(=O)[C@H](CC(C)C)NC(=O)[C@](C)(Cc1ccc(O)cc1)NC(=O)[C@@H](CCC(=O)O)NC(=O)[C@@H](NC(=O)[C@H](Cc1ccccc1)NC(=O)[C@H](CCC(=O)O)NC(=O)C(C)(C)NC(=O)[C@H](CCC(N)=O)NC(=O)[C@H](C)NC(=O)[C@H](CCCCNC(=O)COCCOCCNC(=O)COCCOCCNC(=O)CC[C@H](NC(=O)CCCCCCCCCCCCC(=O)O)C(=O)O)NC(=O)[C@H](CCCN)NC(=O)[C@H](CC(=O)O)NC(=O)[C@H](CC(C)C)NC(=O)[C@](C)(CC(C)C)NC(=O)[C@@H](NC(=O)[C@H](CO)NC(=O)[C@H](Cc1ccncc1)NC(=O)[C@H](CC(=O)O)NC(=O)[C@H](CO)NC(=O)[C@@H](NC(=O)[C@](C)(Cc1ccccc1F)NC(=O)[C@@H](NC(=O)CNC(=O)[C@H](CCC(=O)O)NC(=O)C(C)(C)NC(=O)[C@@H](N)Cc1ccc(O)cc1)[C@@H](C)O)[C@@H](C)O)[C@@H](C)CC)[C@@H](C)CC)C(=O)N[C@@H](CCC(=O)O)C(=O)NCC(=O)NCC(=O)N[C@@H](CCCCNC(=O)COCCOCCNC(=O)COCCOCCNC(=O)CC[C@H](NC(=O)CCCCCCCCCCCCC(=O)O)C(=O)O)C(=O)N[C@@H](CO)C(=O)N[C@@H](CO)C(=O)NCC(=O)N[C@@H](C)C(=O)N1CCC[C@H]1C(=O)N1CCC[C@H]1C(=O)N1CCC[C@H]1C(=O)N[C@@H](CCCN)C(N)=O [Example 154]
